Test results taken from ChEMBL document CHEMBL4622867, “An efficient synthetic approach toward a sporadic heterocyclic scaffold: 1,3-Oxathiol-2-ylidenes; alkaline phosphatase inhibition and molecular docking studies” (Bioorg Med Chem Lett, 2020).

Legend:
[1] = Inhibition of calf intestinal alkaline phosphatase; parameters: species or system Bos taurus
[2] = system: HeLa; experiment: Antiproliferative activity against human HeLa cells assessed as inhibition of cell growth by MTT assay relative to control; format: functional
[3] = Inhibition of bovine kidney TNAP; parameters: species or system Bos taurus
[4] = species: Bos taurus; experiment: Inhibition of calf intestinal alkaline phosphatase relative to control; parameters: concentration or dose not given beside the values; conditions: concentration not given here
[5] = species: Bos taurus; experiment: Inhibition of bovine kidney TNAP relative to control; parameters: concentration or dose not given beside the values; conditions: concentration not given here

Row | SMILES | IC50 [1] [µM] | growth inhibition (GI) [2] [%] | IC50 [3] [µM] | inhibition [4] [%] | inhibition [5] [%]
1 | CCOC(=O)c1s/c(=N\C(=O)c2cccc(Br)c2)oc1C | 1.16 | 4.61 | 6.51 |  | 
2 | CCOC(=O)c1s/c(=N\C(=O)c2ccco2)oc1C |  | 42.11 |  | 33.1 | 45.7
3 | CCOC(=O)c1s/c(=N\C(=O)c2ccccc2[N+](=O)[O-])oc1C |  | 2.42 |  | 35.4 | 44.5
4 | CCOC(=O)c1s/c(=N\C(=O)c2ccc([N+](=O)[O-])cc2)oc1C |  | 21.53 | 0.37 | 40.4 | 
5 | CCOC(=O)c1s/c(=N\C(=O)CCCc2ccccc2)oc1C | 0.67 | 3.96 | 2.41 |  | 
6 | CCOC(=O)c1s/c(=N\C(=O)c2cccc(C)c2)oc1C |  | 33.07 |  | 28.9 | 30.9
7 | CCOC(=O)c1s/c(=N\C(=O)c2ccccc2Cl)oc1C |  | 51.53 | 30.4 | 45.3 | 
8 | N[C@@H](Cc1ccccc1)C(=O)O [PHENYLALANINE] | 80.2 |  |  |  | 
9 | CCOC(=O)c1s/c(=N\C(=O)c2ccccc2C)oc1C |  | 9.8 |  | 19.5 | 28.8
10 | c1ccc([C@H]2CN3CCSC3=N2)cc1 [LEVAMISOLE] |  |  | 19.2 |  | 
11 | CCOC(=O)c1s/c(=N\C(=O)Cc2ccccc2)oc1C |  | 4.15 |  | 25.3 | 41.4
12 | CCOC(=O)c1s/c(=N\C(=O)c2ccc(Cl)cc2)oc1C |  |  |  | 27.9 | 48.3
13 | CCOC(=O)c1s/c(=N\C(=O)c2cccc(Cl)c2)oc1C | 2.9 | 8.07 |  |  | 45.3
14 | CCOC(=O)c1s/c(=N\C(=O)c2ccccc2)oc1C |  | 69.03 |  | 30.4 | 39.1
15 | CCOC(=O)c1s/c(=N\C(=O)c2cc(OC)c(OC)c(OC)c2)oc1C |  | 58.07 |  | 36.5 | 47.1
